# Source: patent publication US6933131B2, “Nucleic acids encoding insect acetylcholine receptor subunits” (Bayer Aktiengesellschaft, priority 1998, dated 2005)
# Test system: acetylcholine receptors according to the invention (recombinantly modified HEK293 cells of Example 2)
# Details: nicotine final concentration 500 μM; HEK293 cells expressing the α subunit of an L-type Ca channel, recombinantly modified as in Example 2; FIG. 1
# Procedure: Cells were loaded with Fura-2-acetoxymethyl ester (5-10 μM in serum-free minimal essential medium containing 1% bovine serum albumin and 5 mM calcium chloride), washed with Tyrode solution buffered with N-(2-hydroxyethyl)piperazine-N′-(2-ethanesulphonic acid) (5 mM HEPES) and alternately illuminated, under a fluorescence microscope (Nikon Diaphot) with light of 340 nm and 380 nm wavelength. A measurement point corresponds to a pair of video images at the two wavelengths (exposure time per image, 100 ms). The time interval between two measurement points is 3 s. […] The fluorescence intensity of the cells when illuminated with light of 380 nm wavelength was divided by the corresponding intensity at 340 nm, thereby giving the ratio.
# HEK293 cells, which express the α subunit of an L-type Ca channel (Zong et al. 1995, Stetzer et al. 1996), were cultured in Dulbecco's modified Eagle's medium and 10% foetal calf serum at 5% CO2 and from 20° C. to 37° C. […] Individual resistant clones were analyzed as described below.
# The alterations in the intracellular calcium concentration were measured using Fura-2. […] 100 μl Tyrode buffer were added to the wells of the microtitre plate and the cells were illuminated alternately, under a fluorescence microscope (Nikon Diaphot), with light of 340 nm and 380 nm wavelength. […]
smiles,measurement,value
CN1CCCC1c1cccnc1 (stereo not shown) [nicotine],change in intracellular calcium (Fura-2 fluorescence ratio 380 nm/340 nm) following the addition of nicotine,increase in intracellular calcium
